Assays:
Assay in all cases: cells
H4 = assay type: functional, cell-based; settings: Homo sapiens
Description: SANGER: Inhibition of human H4 cell growth in a cell viability assay.

SW48 = assay type: functional, cell-based, Homo sapiens; settings: Homo sapiens, SW48;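 note: growth inhibition of SW48 cells, read out with a cell viability assay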
Description: SANGER: Inhibition of human SW48 cell growth in a cell viability assay.

OVCAR-8 = assay type: functional, cell-based, Homo sapiens; settings: Homo sapiens, OVCAR-8;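 note: growth inhibition of human OVCAR-8 cells, read out by a cell viability assay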
Description: SANGER: Inhibition of human OVCAR-8 cell growth in a cell viability assay.

SK-MEL-2 = assay type: functional, cell-based, Homo sapiens; settings: Homo sapiens, SK-MEL-2
Description: SANGER: Inhibition of human SK-MEL-2 cell growth in a cell viability assay.

NCI-H2170 = assay type: functional, cell-based, Homo sapiens; settings: Homo sapiens, NCI-H2170;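 note: cell viability assay measuring growth inhibition of human NCI-H2170 cancer cells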
Description: SANGER: Inhibition of human NCI-H2170 cell growth in a cell viability assay.

NOS-1 = assay type: functional, cell-based, Homo sapiens; settings: Homo sapiens, NOS-1;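 note: growth inhibition of the human NOS-1 cell line, read out with a cell viability assay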
Description: SANGER: Inhibition of human NOS-1 cell growth in a cell viability assay.

NCI-H2228 = assay type: functional, cell-based, Homo sapiens; settings: Homo sapiens, NCI-H2228;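 note: growth inhibition of human NCI-H2228 cells, read out by a cell viability assay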
Description: SANGER: Inhibition of human NCI-H2228 cell growth in a cell viability assay.

DOK = assay type: functional, cell-based, Homo sapiens; settings: Homo sapiens, DOK;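 note: cell viability assay read-out, values reflect inhibition of cell growth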
Description: SANGER: Inhibition of human DOK cell growth in a cell viability assay.

MSTO-211H = assay type: functional, cell-based, Homo sapiens; settings: Homo sapiens, MSTO-211H
Description: SANGER: Inhibition of human MSTO-211H cell growth in a cell viability assay.

NCI-H2030 = assay type: functional, cell-based, Homo sapiens; settings: Homo sapiens, NCI-H2030;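 note: growth inhibition of human NCI-H2030 cells, read out by a cell viability assay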
Description: SANGER: Inhibition of human NCI-H2030 cell growth in a cell viability assay.

OVCAR-4 = assay type: functional, cell-based, Homo sapiens; settings: Homo sapiens, OVCAR-4;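 note: growth inhibition of human OVCAR-4 cells, measured with a cell viability assay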
Description: SANGER: Inhibition of human OVCAR-4 cell growth in a cell viability assay.

SKG-IIIa = assay type: functional, cell-based, Homo sapiens; settings: Homo sapiens, SKG-IIIa;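 note: cell growth inhibition, read out with a cell viability assay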
Description: SANGER: Inhibition of human SKG-IIIa cell growth in a cell viability assay.

JAR = assay type: functional, cell-based, Homo sapiens; settings: Homo sapiens, JAR;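 note: growth inhibition of human JAR cells determined with a cell viability assay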
Description: SANGER: Inhibition of human JAR cell growth in a cell viability assay.

RCC10RGB = assay type: functional, cell-based, Homo sapiens; settings: Homo sapiens, RCC10RGB;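 note: growth inhibition of human RCC10RGB cells, read out by a cell viability assay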
Description: SANGER: Inhibition of human RCC10RGB cell growth in a cell viability assay.

Panc1005 = assay type: functional, cell-based, Homo sapiens; settings: Homo sapiens, Panc1005;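 note: growth inhibition of human PANC-10-05 cells, measured by a cell viability assay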
Description: SANGER: Inhibition of human PANC-10-05 cell growth in a cell viability assay.

MDA-MB-231 = assay type: functional, cell-based, Homo sapiens; settings: Homo sapiens, MDA-MB-231
Description: SANGER: Inhibition of human MDA-MB-231 cell growth in a cell viability assay.

CAL-72 = assay type: functional, cell-based, Homo sapiens; settings: Homo sapiens, CAL-72;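 note: cell viability assay measuring inhibition of proliferation in the CAL-72 cell line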
Description: SANGER: Inhibition of human CAL-72 cell growth in a cell viability assay.

BFTC-905 = assay type: functional, cell-based, Homo sapiens; settings: Homo sapiens, BFTC-905
Description: SANGER: Inhibition of human BFTC-905 cell growth in a cell viability assay.

A2780 = assay type: functional, cell-based, Homo sapiens; settings: Homo sapiens, A2780;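 note: growth inhibition of A2780 cells, read out with a cell viability assay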
Description: SANGER: Inhibition of human A2780 cell growth in a cell viability assay.

CTB-1 = assay type: functional, cell-based; settings: Homo sapiens
Description: SANGER: Inhibition of human CTB-1 cell growth in a cell viability assay.

KM-H2 = assay type: functional, cell-based; settings: Homo sapiens;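 note: growth inhibition of KM-H2 cells, read out by a cell viability assay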
Description: SANGER: Inhibition of human KM-H2 cell growth in a cell viability assay.

Hs-578T = assay type: functional, cell-based, Homo sapiens; settings: Homo sapiens, Hs-578T
Description: SANGER: Inhibition of human Hs-578-T cell growth in a cell viability assay.

HCC1419 = assay type: functional, cell-based, Homo sapiens; settings: Homo sapiens, HCC1419;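 note: growth inhibition of human HCC1419 cells, read out as cell viability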
Description: SANGER: Inhibition of human HCC1419 cell growth in a cell viability assay.

SF-268 = assay type: functional, cell-based, Homo sapiens; settings: Homo sapiens, SF-268;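 note: growth inhibition of SF-268 cells determined with a cell viability assay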
Description: SANGER: Inhibition of human SF268 cell growth in a cell viability assay.

CAPAN-1 = assay type: functional, cell-based, Homo sapiens; settings: Homo sapiens, CAPAN-1;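 note: growth suppression of CAPAN-1 cells, read out by a cell viability assay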
Description: SANGER: Inhibition of human CAPAN-1 cell growth in a cell viability assay.

COLO-680N = assay type: functional, cell-based, Homo sapiens; settings: Homo sapiens, COLO-680N;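 note: cell viability assay used to measure inhibition of COLO-680N cell growth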
Description: SANGER: Inhibition of human COLO-680N cell growth in a cell viability assay.

DSH1 = assay type: functional, cell-based, Homo sapiens; settings: Homo sapiens, DSH1;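 note: growth inhibition of human DSH1 cells, measured with a cell viability readout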
Description: SANGER: Inhibition of human DSH1 cell growth in a cell viability assay.

BXPC-3 = assay type: functional, cell-based, Homo sapiens; settings: Homo sapiens, BXPC-3;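 note: growth inhibition of human BxPC-3 cells, read out by a cell viability assay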
Description: SANGER: Inhibition of human BxPC-3 cell growth in a cell viability assay.

KYSE-140 = assay type: functional, cell-based, Homo sapiens; settings: Homo sapiens, KYSE-140;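 note: cell viability assay measuring growth inhibition in human KYSE-140 cells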
Description: SANGER: Inhibition of human KYSE-140 cell growth in a cell viability assay.

HEC-1 = assay type: functional, cell-based, Homo sapiens; settings: Homo sapiens, HEC-1;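 note: growth inhibition of the cell line, read out with a cell viability assay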
Description: SANGER: Inhibition of human HEC-1 cell growth in a cell viability assay.

LS-123 = assay type: functional, cell-based, Homo sapiens; settings: Homo sapiens, LS-123
Description: SANGER: Inhibition of human LS-123 cell growth in a cell viability assay.

AM-38 = assay type: functional, cell-based, Homo sapiens; settings: Homo sapiens, AM-38;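 note: growth inhibition of AM-38 cells of human origin, read out by a cell viability assay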
Description: SANGER: Inhibition of human AM-38 cell growth in a cell viability assay.

HuO-3N1 = assay type: functional, cell-based, Homo sapiens; settings: Homo sapiens, HuO-3N1;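 note: cell viability readout used to measure how strongly compounds suppress proliferation of human HuO-3N1 cells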
Description: SANGER: Inhibition of human HuO-3N1 cell growth in a cell viability assay.

NCI-H1793 = assay type: functional, cell-based, Homo sapiens; settings: Homo sapiens, NCI-H1793;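 note: cell growth inhibition, read out by a cell viability assay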
Description: SANGER: Inhibition of human NCI-H1793 cell growth in a cell viability assay.

ES4 = assay type: functional, cell-based, Homo sapiens; settings: Homo sapiens, ES4;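 note: growth inhibition of human ES4 cells, read out by a cell viability assay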
Description: SANGER: Inhibition of human ES4 cell growth in a cell viability assay.

RT-112 = assay type: functional, cell-based, Homo sapiens; settings: Homo sapiens, RT-112
Description: SANGER: Inhibition of human RT-112 cell growth in a cell viability assay.

PANC-08-13 = assay type: functional, cell-based, Homo sapiens; settings: Homo sapiens, PANC-08-13;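 note: cell growth inhibition, measured with a cell viability assay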
Description: SANGER: Inhibition of human PANC-08-13 cell growth in a cell viability assay.

LCLC-103H cell line = assay type: functional, cell-based, Homo sapiens; settings: Homo sapiens, LCLC-103H
Description: SANGER: Inhibition of human LCLC-103H cell growth in a cell viability assay.

KYSE-450 = assay type: functional, cell-based; settings: Homo sapiens;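 note: cell growth inhibition measured by a viability assay in human KYSE-450 cells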
Description: SANGER: Inhibition of human KYSE-450 cell growth in a cell viability assay.

KYSE-150 cell line = assay type: functional, cell-based, Homo sapiens; settings: Homo sapiens, KYSE-150;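 note: growth inhibition of human KYSE-150 cells, read out with a cell viability assay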
Description: SANGER: Inhibition of human KYSE-150 cell growth in a cell viability assay.

COLO-792 = assay type: functional, cell-based, Homo sapiens; settings: Homo sapiens, COLO-792
Description: SANGER: Inhibition of human COLO-792 cell growth in a cell viability assay.

HT1197 = assay type: functional, cell-based, Homo sapiens, HT-1197; settings: Homo sapiens, HT1197
Description: SANGER: Inhibition of human HT-1197 cell growth in a cell viability assay.

SK-MEL-28 = assay type: functional, cell-based; settings: Homo sapiens;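 note: growth inhibition of human SK-MEL-28 cells, read out with a cell viability assay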
Description: SANGER: Inhibition of human SK-MEL-28 cell growth in a cell viability assay.

DMS-114 = assay type: functional, cell-based, Homo sapiens; settings: Homo sapiens, DMS-114
ES3 = assay type: functional, cell-based, Homo sapiens; settings: Homo sapiens, ES3;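 note: growth inhibition of ES3 cells, read out with a cell viability assay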
Description: SANGER: Inhibition of human ES3 cell growth in a cell viability assay.

NOMO-1 = assay type: functional, cell-based; settings: Homo sapiens;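 note: growth inhibition of human NOMO-1 cells measured by a cell viability assay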
Description: SANGER: Inhibition of human NOMO-1 cell growth in a cell viability assay.

AU565 = assay type: functional, cell-based, Homo sapiens; settings: Homo sapiens, AU565;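 note: cell viability assay measuring growth inhibition of human AU565 cells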
Description: SANGER: Inhibition of human AU565 cell growth in a cell viability assay.

CN(Cc1cnc2nc(N)nc(N)c2n1)c1ccc(C(=O)N[C@@H](CCC(=O)O)C(=O)O)cc1 [METHOTREXATE]
IC50 (H4): > 200 nM
IC50 (SW48): > 200 nM
IC50 (OVCAR-8): > 200 nM
IC50 (SK-MEL-2): > 200 nM
IC50 (NCI-H2170): > 200 nM
IC50 (NOS-1): > 200 nM
IC50 (NCI-H2228): > 200 nM
IC50 (DOK): > 200 nM
IC50 (MSTO-211H): > 200 nM
IC50 (NCI-H2030): > 200 nM
IC50 (OVCAR-4): > 200 nM
IC50 (SKG-IIIa): > 200 nM
IC50 (JAR): 188 nM
IC50 (RCC10RGB): > 200 nM
IC50 (Panc1005): > 200 nM
IC50 (MDA-MB-231): > 200 nM
IC50 (CAL-72): > 200 nM
IC50 (BFTC-905): > 200 nM
IC50 (A2780): 54.5 nM
IC50 (CTB-1): 16.2 nM
IC50 (KM-H2): > 200 nM
IC50 (Hs-578T): > 200 nM
IC50 (HCC1419): > 200 nM
IC50 (SF-268): > 200 nM
IC50 (CAPAN-1): > 200 nM
IC50 (COLO-680N): > 200 nM
IC50 (DSH1): > 200 nM
IC50 (BXPC-3): > 200 nM
IC50 (KYSE-140): > 200 nM
IC50 (HEC-1): > 200 nM
IC50 (LS-123): > 200 nM
IC50 (AM-38): > 200 nM
IC50 (HuO-3N1): 89.1 nM
IC50 (NCI-H1793): > 200 nM
IC50 (ES4): 79.5 nM
IC50 (RT-112): 142 nM
IC50 (PANC-08-13): > 200 nM
IC50 (LCLC-103H cell line): 174 nM
IC50 (KYSE-450): > 200 nM
IC50 (KYSE-150 cell line): 115 nM
IC50 (COLO-792): > 200 nM
IC50 (HT1197): > 200 nM
IC50 (SK-MEL-28): > 200 nM
IC50 (DMS-114): > 200 nM
IC50 (ES3): > 200 nM
IC50 (NOMO-1): 16.2 nM
IC50 (AU565): 61.3 nM
